This note sets out measurements from patent US10730830B2, “Tetrahydronaphthalene derivative” (ONO PHARMACEUTICAL CO., LTD., priority 2016, dated 2020).

Structures are written as SMILES. Where a name gives a salt, the structure may show the parent alone.

The target of experiment [1] is human S1P1 (EDG-1) (Homo sapiens (Human), UniProt P21453). Nature of the experiment: Inhibition of binding of [33P]-S1P to S1P1 (EDG-1), CHO cell membrane fractions. The settings on record: [33P]-S1P displacement, CHO membranes overexpressing human S1P1. How it is done: (§1) Biological Experimental Example 1: Measurement of the Inhibitory Action of the Compound of the Present Invention on Binding of [^33P]-S1P to S1P5 (EDG-8)
Chain of human S1P1 (EDG-1) (P21453 whole entry): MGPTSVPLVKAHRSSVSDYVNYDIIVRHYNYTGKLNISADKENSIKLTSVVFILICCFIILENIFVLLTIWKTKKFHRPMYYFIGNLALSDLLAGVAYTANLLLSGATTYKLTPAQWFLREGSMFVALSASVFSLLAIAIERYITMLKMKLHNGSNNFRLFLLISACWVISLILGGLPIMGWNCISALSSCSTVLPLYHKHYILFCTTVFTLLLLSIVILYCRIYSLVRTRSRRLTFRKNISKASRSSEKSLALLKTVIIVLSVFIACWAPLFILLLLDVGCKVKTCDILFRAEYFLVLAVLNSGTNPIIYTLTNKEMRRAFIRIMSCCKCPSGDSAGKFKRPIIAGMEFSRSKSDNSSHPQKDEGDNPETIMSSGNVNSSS
(§2) A reaction was carried out in a 96-well microplate by using membrane fractions of Chinese hamster ovary (CHO) cells each of which was made to overexpress human S1P1 (EDG-1) or human S1P5 gene respectively, in an amount of the membrane fraction of 1 mg protein/mL. To each of the wells, 100 μL of a vehicle (DMSO) solution or a two-fold concentration-ligand solution each of which was diluted with Binding Buffer (50 mmol/L, Tris pH 7.5, 5 mmol/L, MgCl2, 0.5% BSA and Complete EDTA free (1 tablet/50 mL)), and 50 μL of 0.16 nmol/L [^33P]-S1P (manufactured by American Radiolabeled Chemicals, Inc.) diluted with Binding Buffer were added. Thereafter, the membrane fraction solutions (50 μL) was added to the wells and the reaction was carried out at room temperature for 60 minutes. After the reaction, suction filtration was carried out by using a 96-well UNIFILTER, and the 96-well microplate was washed with Wash Buffer (50 mmol/L, Tris pH 7.5, 0.5% BSA) ([…]), and thereafter, was dried at 60° C. for 45 minutes. MicroScint (trade name) 20 (50 μL/well) was added and the plate was covered with TopSeal-A, and thereafter, the radioactivity was measured by using TopCount (manufactured by PerkinElmer Inc.).

Experiment [2] deals with T1, human S1P5 (EDG-8) (Homo sapiens (Human), UniProt Q9H228). The experiment in a line: Inhibition of binding of [33P]-S1P to S1P5 (EDG-8), CHO cell membrane fractions. The settings on record: [33P]-S1P displacement, CHO membranes overexpressing human S1P5. How it is done: as §1, §2
T1 sequence (Q9H228 whole entry): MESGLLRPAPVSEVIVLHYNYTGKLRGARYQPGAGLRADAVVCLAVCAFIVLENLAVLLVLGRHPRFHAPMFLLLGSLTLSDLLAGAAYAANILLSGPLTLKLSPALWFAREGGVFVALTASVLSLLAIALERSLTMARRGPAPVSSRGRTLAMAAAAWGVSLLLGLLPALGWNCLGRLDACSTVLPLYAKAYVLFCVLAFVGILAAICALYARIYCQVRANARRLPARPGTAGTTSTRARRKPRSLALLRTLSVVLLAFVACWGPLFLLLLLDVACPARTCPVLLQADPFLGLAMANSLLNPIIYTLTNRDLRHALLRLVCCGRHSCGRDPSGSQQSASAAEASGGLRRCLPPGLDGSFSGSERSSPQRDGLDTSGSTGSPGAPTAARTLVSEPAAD
Experiment [3] has as its target T1, human S1P5 (EDG-8). The experiment in a line: S1P5 receptor agonist activity by monitoring intracellular cyclic AMP in CHO cells overexpressing human S1P5. It is filed as cell-based. The settings on record: cAMP, forskolin-stimulated CHO cells overexpressing human S1P5. How it is done:
Biological Example 2: Evaluation of S1P5 Receptor Agonist Activities of the Compound of the Present Invention by Monitoring the Concentration of Produced Intracellular Cyclic AMP
CHO cells which were made to overexpress human S1P5 (EDG-8) gene were cultured in Ham's F12 Medium (manufactured by Gibco-BRL) containing 10% FBS (fetal bovine serum), penicillin/streptomycin and geneticin (0.25 mg/mL). The medium was removed from the cultured cells, the cultured cells were washed once with phosphate-buffered saline, and the cultured cells were treated with a vehicle (DMSO) solution or a compound solution each of which was diluted with Buffer (Hanks' balanced salt solution containing 20 mmol/L HEPES, 0.1 or 0.2% BSA, 1 mmol/L IBMX and 5 μmol/L forskolin) at 37° C. for 30 minutes. Thereafter, the cultured cells were washed once with phosphate-buffered saline, lysis of the cells, and the concentration of cyclic AMP in the cell lysate were measured by using cAMP Assay Kit (Cisbio Bioassays).

By IC50 is commonly meant the concentration that inhibits the measured activity by half. High values mean a need for much substance, low ones inhibition by little substance. `O=C(O)C1CN(C2CCc3cccc(OCCc4cccc5ccccc45)c3C2)C1` (single isomer, unassigned; (+)) [Example 51 (2), (+)-1-{8-[2-(1-Naphthyl)ethoxy]-1,2,3,4-tetrahydro-2-naphthalenyl}-3-azetidinecarboxylic Acid]: the IC50 was greater than 10000 nM in experiment [1] and 1 to 100 nM in experiment [2].
For `O=C(O)C1CN(C2CCc3cccc(OCCCc4ccccc4)c3C2)C1` (stereo not drawn) [Example 3 (4), 1-[8-(3-Phenylpropoxy)-1,2,3,4-tetrahydro-2-naphthalenyl]-3-azetidinecarboxylic Acid], the 50% inhibitory concentration (IC50) in experiment [1] was greater than 10000 nM; in experiment [2], 1 to 100 nM.
Consider `O=C(O)C1CC(N2CCc3cccc(OCCc4cccc5ccccc45)c3CC2)C1` (single isomer, unassigned) [Example 23 (8), 3-{6-[2-(1-Naphthyl)ethoxy]-1,2,4,5-tetrahydro-3H-3-benzazepin-3-yl}cyclobutanecarboxylic Acid], for which the IC50 was greater than 10000 nM in experiment [1] and 1 to 100 nM in experiment [2].
Take `O=C(O)C1CN(C2CCc3cccc(OCCc4cccc5ccccc45)c3C2)C1` (single isomer, unassigned; (-)) [Example 51 (1), (−)-1-{8-[2-(1-Naphthyl)ethoxy]-1,2,3,4-tetrahydro-2-naphthalenyl}-3-azetidinecarboxylic Acid]: the IC50 in experiment [1] is greater than 10000 nM; in experiment [2] it was 1 to 100 nM.
The corresponding values for `O=C(O)CCCN1CCc2cccc(OCCCC3CCOCC3)c2CC1` [Example 18 (42), 4-{6-[3-(tetrahydro-2H-pyran-4-yl)propoxy]-1,2,4,5-tetrahydro-3H-3-benzazepin-3-yl}butanoic Acid] are greater than 10000 nM and 100 to 1000 nM.
For the compound `O=C(O)CCCN1CCc2cccc(OCC3CCc4ccccc4C3)c2CC1` (stereo not drawn) [Example 18 (16), 4-[6-(1,2,3,4-Tetrahydro-2-naphthalenylmethoxy)-1,2,4,5-tetrahydro-3H-3-benzazepin-3-yl]butanoic Acid], the IC50 in experiment [1] is greater than 10000 nM; in experiment [2] it was 100 to 1000 nM.
Take `CN(CCC(=O)O)C1CCc2cccc(OC/C=C/c3ccc(C(F)(F)F)cc3)c2C1` (stereo not drawn) [Example 3 (3), 3-{Methyl[8-({(2E)-3-[4-(trifluoromethyl)phenyl]-2-propen-1-yl}loxy)-1,2,3,4-tetrahydro-2-naphthalenyl]amino}propanoic Acid]: the values for the IC50 in experiment [1] and in experiment [2] were greater than 30000 nM and 100 to 1000 nM, respectively.
The corresponding values for `O=C(O)CCCN1CCc2c(cccc2OC/C=C/c2ccc(OC(F)F)cc2)C1` [Example 18 (4), 4-[5-({(2E)-3-[4-(Difluoromethoxy)phenyl]-2-propen-1-yl}oxy)-3,4-dihydro-2(1H)-isoquinolinyl]butanoic Acid] are greater than 30000 nM and 1000 to 3000 nM.
For orientation: EC50 means the concentration needed to bring the measured effect to its halfway point. `O=C(O)C1CN(C2CCc3cccc(OCCc4cccc5ccccc45)c3C2)C1` (stereo not drawn) [Example 3 (5), 1-{8-[2-(1-Naphthyl)ethoxy]-1,2,3,4-tetrahydro-2-naphthalenyl}-3-azetidinecarboxylic Acid] returned an EC50 in experiment [3] of 1 to 100 nM.
`CCCCCCCCOc1cccc2c1CCN(CCCC(=O)O)CC2` [Example 18 (32), 4-[6-(Octyloxy)-1,2,4,5-tetrahydro-3H-3-benzazepin-3-yl]butanoic Acid]: the IC50 in experiment [1] is greater than 10000 nM; in experiment [2], 100 to 1000 nM.
For `O=C(O)C1CCN(C2CCc3c(cccc3OC/C=C/c3ccc(C(F)(F)F)cc3)C2)C1` (stereo not drawn) [Example 3 (1), 1-[5-({(2E)-3-[4-(Trifluoromethyl)phenyl]-2-propen-1-yl}oxy)-1,2,3,4-tetrahydro-2-naphthalenyl]-3-pyrrolidinecarboxylic Acid], the figures for the IC50 in experiment [1] and in experiment [2] were greater than 30000 nM and 1000 to 3000 nM, respectively.
For `O=C(O)CCN1CCc2cccc(OC/C=C/c3ccc(C(F)(F)F)cc3)c2CC1` [Example 18 (8), 3-[6-({(2E)-3-[4-(Trifluoromethyl)phenyl]-2-propen-1-yl}oxy)-1,2,4,5-tetrahydro-3H-3-benzazepin-3-yl]propanoic Acid], the values for the IC50 in experiment [1] and in experiment [2] were greater than 10000 nM and 100 to 1000 nM, respectively.
Taken in the same sequence, the figures for `O=C(O)CC1(CN2CCc3cccc(OCCc4cccc5ccccc45)c3CC2)CC1` [Example 37, [1-({6-[2-(1-Naphthyl)ethoxy]-1,2,4,5-tetrahydro-3H-3-benzazepin-3-yl}methyl)cyclopropyl]acetic Acid] were greater than 10000 nM and 100 to 1000 nM.
As to `O=C(O)CCCN1CCc2cccc(OCCCc3ccccc3)c2CC1` [Example 18 (11), 4-[6-(3-Phenylpropoxy)-1,2,4,5-tetrahydro-3H-3-benzazepin-3-yl]butanoic Acid], the EC50 in experiment [3] is 1 to 100 nM.
As for `O=C(O)CCCN1CCc2cccc(OCCC3Cc4ccccc43)c2CC1` (stereo not drawn) [Example 18 (26), 4-{6-[2-(Bicyclo[4.2.0]octa-1,3,5-trien-7-yl)ethoxy]-1,2,4,5-tetrahydro-3H-3-benzazepin-3-yl}butanoic Acid], the IC50 in experiment [1] was greater than 10000 nM; in experiment [2], 100 to 1000 nM.
In experiment [3], `O=C(O)CCCN1CCc2cccc(OCCc3cccc4ccccc34)c2CC1` [Example 18 (18), 4-{6-[2-(1-Naphthyl)ethoxy]-1,2,4,5-tetrahydro-3H-3-benzazepin-3-yl}butanoic Acid] gave an EC50 of 1 to 100 nM. The values for the IC50 in experiment [1] and in experiment [2] were greater than 10000 nM and 1 to 100 nM, respectively.
In the case of `Cc1ccc2c(c1OCCCc1ccccc1)CCN(CCCC(=O)O)CC2` [Example 29, 4-[7-Methyl-6-(3-phenylpropoxy)-1,2,4,5-tetrahydro-3H-3-benzazepin-3-yl]butanoic Acid], the IC50 in experiment [1] is greater than 10000 nM; in experiment [2], 1 to 100 nM.
As for `O=C(O)C1CN(C2Cc3cccc(OCCc4ccccc4)c3C2)C1` (stereo not drawn) [Example 48, 1-[4-(2-Phenylethoxy)-2,3-dihydro-1H-inden-2-yl]-3-azetidinecarboxylic Acid], the IC50 in experiment [1] was greater than 30000 nM; in experiment [2] it was 100 to 1000 nM.
As to `CC(C)c1ccc(/C=C/COc2cccc3c2CCN(CCCC(=O)O)C3)cc1` [Example 18 (3), 4-[5-{[(2E)-3-(4-Isopropylphenyl)-2-propen-1-yl]oxy}-3,4-dihydro-2(1H)-isoquinolinyl]butanoic Acid], the IC50 in experiment [1] is greater than 30000 nM; in experiment [2] it was 1000 to 3000 nM.
The corresponding values for `O=C(O)CCCN1CCc2cccc(OCCCCCc3ccccc3)c2CC1` [Example 18 (24), 4-{6-[(5-Phenylpentyl)oxy]-1,2,4,5-tetrahydro-3H-3-benzazepin-3-yl}butanoic Acid] are greater than 10000 nM and 1 to 100 nM.
Consider `O=C(O)CCCN1CCc2cccc(OC/C=C/c3ccc(C(F)(F)F)cc3)c2C1` [Example 18 (2), 4-[8-({(2E)-3-[4-(Trifluoromethyl)phenyl]-2-propen-1-yl}oxy)-3,4-dihydro-2(1H)-isoquinolinyl]butanoic Acid trifluoroacetate], for which the values for the IC50 in experiment [1] and in experiment [2] were greater than 30000 nM and 1000 to 3000 nM, respectively.
For `O=C(O)CCCN1CCc2cccc(OCCOc3ccc(C(F)(F)F)cc3)c2CC1` [Example 18 (10), 4-(6-{2-[4-(Trifluoromethyl)phenoxy]ethoxy}-1,2,4,5-tetrahydro-3H-3-benzazepin-3-yl)butanoic Acid], the IC50 is greater than 10000 nM in experiment [1] and 1 to 100 nM in experiment [2].
The corresponding values for `O=C(O)CCCCN1CCCc2c(cccc2OC/C=C/c2ccc(C(F)(F)F)cc2)C1` [Example 49, 5-[6-({(2E)-3-[4-(Trifluoromethyl)phenyl]-2-propen-1-yl}oxy)-1,3,4,5-tetrahydro-2H-2-benzazepin-2-yl]pentanoic Acid] are greater than 30000 nM and 1000 to 3000 nM.
With `O=C(O)CCCN1CCc2cccc(OCCCC3CCCCC3)c2CC1` [Example 18 (14), 4-[6-(3-Cyclohexylpropoxy)-1,2,4,5-tetrahydro-3H-3-benzazepin-3-yl]butanoic Acid], the IC50 is greater than 10000 nM in experiment [1] and 100 to 1000 nM in experiment [2].
As to `O=C(O)CCCN1CCc2cccc(OCCc3ccccc3)c2CC1` [Example 18 (22), 4-[6-(2-Phenylethoxy)-1,2,4,5-tetrahydro-3H-3-benzazepin-3-yl]butanoic Acid], the IC50 in experiment [1] was greater than 10000 nM; in experiment [2] it was 100 to 1000 nM.
Regarding `O=C(O)CCCN1CCc2c(cccc2OCCc2ccc3ccccc3c2)C1` [Example 18 (1), 4-{5-[2-(2-naphthyl)ethoxy]-3,4-dihydro-2(1H)-isoquinolinyl}butanoic Acid trifluoroacetate], the IC50 in experiment [1] was greater than 30000 nM; in experiment [2], 1000 to 3000 nM.
